This note sets out measurements from the Kinase Knowledgebase extract (Sharma et al. 2016).

Where “and” joins values, the source holds several entries; their conditions need not be identical. Identical values can stand only once.

Assay [1] has as its system MAPK14 (rat). Description: Animal Model. To be noted: mesencephalon tissue.
Assay [2] has as its system MAPK14 (rat). Description: Cell-Based Assay. To be noted: mesencephalic neurons.
For assay [3], the system named is MAPK14 (rat). Nature of the assay: Cell-Based Assay. To be noted: mesencephalic neurons. The source holds these as a separate data set.

As to `O=[N+]([O-])c1ccc(-c2nc(-c3ccc(F)cc3)c(-c3ccncc3)[nH]2)cc1`, the cell count in assay [1] was found to be 3020; in assay [2], 421 cm-2; in assay [3], 283 cm-2. Besides, the response is 454 cm2 in assay [2]; 400 cm2 and 570 cm2 in assay [3].
Regarding `Oc1ccc(-c2nc(-c3ccc(F)cc3)c(-c3ccncc3)[nH]2)cc1`, in assay [3], the cell count is 283 cm-2; the response was 600 cm2 and 473 cm2.
